The numbers were not newly measured in paper PMC5526139 (Xenobiotica; the Fate of Foreign Compounds in Biological …, 2016), which cites them from elsewhere.

On the set-up of this series: method as in Zhang et al., 2011. Particulars: ref Zhang et al., 2011.

In the case of `CC(O)Cn1c(=O)c(Oc2ccc(F)cc2F)cc2cnc(NC(C)CO)nc21` (centres unmarked) [6-(2,4-difluorophenoxy)-2-[(1-hydroxypropan-2-yl)amino]-8-(2-hydroxypropyl)-7H,8H-pyrido[2,3-d]pyrimidin-7-one], the “half-life in Phase 1 clinical trial” value (man) was 0.7 h. The “predicted half-life in man” value (prediction before the clinical trial) is on record as 6 h.
